According to PubChem BioAssay AID1963863 (Molecular Pharmacology Branch, DTP, NCI, 2024):

System: 931267-113-T-J1-PDC KRAS spheroid with HUVEC/MSC, viability
Experiment: Anticancer human tumor 931267-113-T-J1-PDC patient-derived colon adenocarcinoma cell line growth inhibition [KRAS2]
Conditions: for IC50: curve of first compound; for viability, T/C: stronger effect = lower value
Source text: Multicellular complex tumor spheroid response to RAS pathway inhibitors in combination with a targeted agents in patient-derived cell lines with oncogenic KRAS variants from multiple cancer types
A high-throughput screen of multi-cell type tumor spheroids was designed to identify active combinations of targeted small molecules and KRAS pathway inhibitors. Complex spheroids include a stromal component modeled by human endothelial cells (HUVEC) and fibroblasts modeled by human mesenchymal stem cells (MSCs). The concentration ranges selected for each drug and investigational agent were based upon clinically achievable concentrations if the clinical Cmax of the agent was known.
Compounds. The drugs and investigational agents: BI-3406 (NSC825286), BAY-293 (NSC824723), batoprotafib (TNO155; NSC825523), sotorasib (AMG 510; NSC818433), MRTX1257 (NSC819558), elimusertib (BAY 1895344; NSC800525), molibresib (GSK525762; NSC774829), temuterkib (LY3214996; NSC803410), venetoclax (NSC766270), alisertib (NSC759677), olaparib (NSC753686), talazoparib (NSC767125), erdafitinib (NSC781556), ipatasertib (NSC767898), cabozantinib (NSC761068), nintedanib (NSC756659), abemaciclib (NSC768073), docetaxel (NSC628503), trametinib (NSC758246), and sapanisertib (NSC764658) were obtained from the National Cancer Institute (NCI) Developmental Therapeutics Program Chemical Repository. The FDA-approved anticancer drug set is available from the Developmental Therapeutics Program. […] The stock solutions were prepared in dimethyl sulfoxide (DMSO, Sigma-Aldrich, St. Louis, MO, cat. D2650) at 800-fold the tested concentration and stored at -70 degrees C prior to their use. All drugs and investigational agents were tested over a range starting from a high concentration at or near the clinical Cmax and decreasing in half-log increments. If the clinical Cmax for an agent had not been determined, the highest concentration tested was 10 microM.
Cell Culture. All cells were maintained in an incubator at 37 degrees C and 5% CO2 with 95% humidity. The PDC lines were cultured according to standard operating procedures established by the NCI PDMR (https://pdmr.cancer.gov/sops/default.htm). Briefly, all PDCs were thawed and cultured in Matrigel-coated flasks prepared with a working solution of 1X Ham's F-12 nutrient mix, without supplementation (Invitrogen, Waltham, MA, cat. 11765054), 100 U/mL penicillin-streptomycin (Invitrogen, cat. 15140122), and 2.5% Matrigel (Corning Inc., Corning, NY, cat. 354248) for the first three passages. All PDCs were cultured in complete DMEM/F-12 media containing advanced DMEM/F-12 (Invitrogen, cat. 12634028), 4.9% defined fetal bovine serum, heat inactivated (HyClone Laboratories Inc., Logan, UT, cat. SH30070.03HI), 389 ng/mL hydrocortisone (Sigma-Aldrich, cat. H4001), 9.7 ng/mL human EGF recombinant protein (Invitrogen, cat. PHG0313), 23.4 microg/mL adenine (Sigma-Aldrich, cat. A2786), 97.3 U/mL penicillin-streptomycin (Invitrogen, cat. 15140122), 1.9 mM L-glutamine (Invitrogen, cat. 25030081), and 9.7 microM Y-27632 dihydrochloride (Tocris Bioscience, Bristol, United Kingdom, cat. 1254). The PDCs were cultured in complete DMEM/F12 media without 9.7 microM Y-27632 dihydrochloride for at least two passages prior to the screen. The established cell line HOP-62 was cultured in RPMI 1640 medium, HEPES (Invitrogen, cat. 22400105) with 10% defined fetal bovine serum (HyClone Laboratories Inc., cat. SH30070.03) and 2 mM L-glutamine (Invitrogen, cat. 25030081). The pooled donor HUVEC were cultured in endothelial cell growth medium 2 (PromoCell, Heidelberg, Germany, cat. C-22011) and the hMSC were cultured in mesenchymal stem cell growth medium 2 (PromoCell, cat. C-28009). For all experiments, HUVEC and hMSC were used at passages </=5, while the malignant cell lines were used at passages </=15. […]

[1] = second compound 0.1 µM, first compound 0.0316 µM
[2] = second compound 0.1 µM, first compound 0.1 µM
[3] = second compound 0.316 µM, first compound 0.0316 µM
[4] = second compound 0.316 µM, first compound 0.1 µM
[5] = second compound 1 µM, first compound 0.0316 µM
[6] = second compound 1 µM, first compound 0.1 µM
[7] = second compound 3.16 µM, first compound 0.0316 µM
[8] = second compound 3.16 µM, first compound 0.1 µM
[9] = second compound 10 µM, first compound 0.0316 µM
[10] = second compound 10 µM, first compound 0.1 µM
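Note: compound exposure lasted 7 days before the readout.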
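Throughout, for viability, T/C: 100% = DMSO vehicle control viability.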

In the case of `CC(C)n1nc(-c2ccc3oc(N)nc3c2)c2c(N)ncnc21` + C=CC(=O)N1CCN(c2nc(=O)n(-c3c(C)ccnc3C(C)C)c3nc(-c4c(O)cccc4F)c(F)cc23)C(C)C1, the IC50 (second compound 0.1 µM) is reported as 10.8 nM, the IC50 (second compound 0.316 µM) is reported as 9.04 nM and the IC50 (second compound 1 µM) is reported as 7.94 nM. It also gave an IC50 (second compound 3.16 µM) of 9.47 nM, an IC50 (second compound 10 µM) of 8.24 nM and a viability, T/C (second compound 0.1 µM, first compound 0.000316 µM) of 106%. The viability, T/C (second compound 0.1 µM, first compound 0.001 µM) was 89.4%, the viability, T/C (second compound 0.1 µM, first compound 0.00316 µM) was 83.5% and the viability, T/C (second compound 0.1 µM, first compound 0.01 µM) was 48.2%. It also gave a viability, T/C [1] of 34.3%, a viability, T/C [2] of 26.7% and a viability, T/C (second compound 0.316 µM, first compound 0.000316 µM) of 116%. It also gave a viability, T/C (second compound 0.316 µM, first compound 0.001 µM) of 75.7%, a viability, T/C (second compound 0.316 µM, first compound 0.00316 µM) of 77.4% and a viability, T/C (second compound 0.316 µM, first compound 0.01 µM) of 44.8%. It also gave a viability, T/C [3] of 33.6%, a viability, T/C [4] of 27.2% and a viability, T/C (second compound 1 µM, first compound 0.000316 µM) of 100%. For the same compound, the viability, T/C (second compound 1 µM, first compound 0.001 µM) was 117%, the viability, T/C (second compound 1 µM, first compound 0.00316 µM) was 87.6% and the viability, T/C (second compound 1 µM, first compound 0.01 µM) was 41.2%. For the same compound, the viability, T/C [5] was 27.9%, the viability, T/C [6] was 25.1% and the viability, T/C (second compound 3.16 µM, first compound 0.000316 µM) was 108%. For the same compound, the viability, T/C (second compound 3.16 µM, first compound 0.001 µM) was 94.4%, the viability, T/C (second compound 3.16 µM, first compound 0.00316 µM) was 95.6% and the viability, T/C (second compound 3.16 µM, first compound 0.01 µM) was 47.1%. It also gave a viability, T/C [7] of 28.9%, a viability, T/C [8] of 22.3% and a viability, T/C (second compound 10 µM, first compound 0.000316 µM) of 101%. The viability, T/C (second compound 10 µM, first compound 0.001 µM) was 86.4%, the viability, T/C (second compound 10 µM, first compound 0.00316 µM) was 69.7% and the viability, T/C (second compound 10 µM, first compound 0.01 µM) was 48.4%. For the same compound, the viability, T/C [9] was 25.1% and the viability, T/C [10] was 22%.
`COc1cc2nccc(Oc3ccc(NC(=O)C4(C(=O)Nc5ccc(F)cc5)CC4)cc3)c2cc1OC` + C=CC(=O)N1CCN(c2nc(=O)n(-c3c(C)ccnc3C(C)C)c3nc(-c4c(O)cccc4F)c(F)cc23)C(C)C1 gave an IC50 (second compound 0.1 µM) of over 10000 nM, an IC50 (second compound 0.316 µM) of 3110 nM and an IC50 (second compound 1 µM) of over 10000 nM. The IC50 (second compound 3.16 µM) was 2580 nM, the IC50 (second compound 10 µM) was 723 nM and the viability, T/C [1] was 115%. The viability, T/C [2] was 96.3%, the viability, T/C (second compound 0.1 µM, first compound 0.316 µM) was 91.7% and the viability, T/C (second compound 0.1 µM, first compound 1 µM) was 104%. For the same compound, the viability, T/C (second compound 0.1 µM, first compound 3.16 µM) was 65.1%, the viability, T/C (second compound 0.1 µM, first compound 10 µM) was 69% and the viability, T/C [3] was 105%. For the same compound, the viability, T/C [4] was 96.6%, the viability, T/C (second compound 0.316 µM, first compound 0.316 µM) was 97.1% and the viability, T/C (second compound 0.316 µM, first compound 1 µM) was 96.3%. It also gave a viability, T/C (second compound 0.316 µM, first compound 3.16 µM) of 49.3%, a viability, T/C (second compound 0.316 µM, first compound 10 µM) of 48.5% and a viability, T/C [5] of 108%. For the same compound, the viability, T/C [6] was 115%, the viability, T/C (second compound 1 µM, first compound 0.316 µM) was 98.4% and the viability, T/C (second compound 1 µM, first compound 1 µM) was 109%. The viability, T/C (second compound 1 µM, first compound 3.16 µM) was 63.7%, the viability, T/C (second compound 1 µM, first compound 10 µM) was 57.2% and the viability, T/C [7] was 106%. It also gave a viability, T/C [8] of 92.8%, a viability, T/C (second compound 3.16 µM, first compound 0.316 µM) of 98.2% and a viability, T/C (second compound 3.16 µM, first compound 1 µM) of 82.3%. The viability, T/C (second compound 3.16 µM, first compound 3.16 µM) was 43%, the viability, T/C (second compound 3.16 µM, first compound 10 µM) was 34.4% and the viability, T/C [9] was 82.6%. It also gave a viability, T/C [10] of 80.6%, a viability, T/C (second compound 10 µM, first compound 0.316 µM) of 54.3% and a viability, T/C (second compound 10 µM, first compound 1 µM) of 58.1%. The viability, T/C (second compound 10 µM, first compound 3.16 µM) was 10.7% and the viability, T/C (second compound 10 µM, first compound 10 µM) was 18.5%.
